Counter-ions that a name gives are not always drawn. Like-named read-outs stand apart in the source and are kept apart here.
How the values were obtained:
[1] = tested on: isolated trachea of guinea-pig; test: isolated trachea of guinea-pig: antagonism of isoprenaline relaxation (PA2); assay type: cell-based; conditions: Cavia porcellus, agonist isoprenaline, PA2 = cologarithm of antagonist concentration requiring twice as much agonist
Description: on the isolated trachea of guinea-pigs: they inhibit the relaxation due to the action of this same isoprenaline.
(§1) The following Table gives the PA2 determined with respect to this agonist (PA2 is the cologarithm of the antagonist concentration in the presence of which it is required to use twice as much agonist than in its absence to obtain the same effect; vide, on the subject; Calcul des PA2, Fiche Technique n° 16, J. Pharmacol. Paris, 1971, 2, 3, 373-380).

[2] = tested on: isolated auricle of guinea-pig; test: isolated auricle of guinea-pig: antagonism of isoprenaline (PA2); assay type: cell-based; conditions: Cavia porcellus, agonist isoprenaline, PA2 = cologarithm of antagonist concentration requiring twice as much agonist
Description: as §1

[3] = tested on: action of isoprenaline; test: inhibition of the action of isoprenaline on cardiac parameters in anesthetized dog; assay type: in vivo; conditions: Canis lupus familiaris, isoprenaline 0.02 micromole/kg
Description: This beta-blocking activity is again apparent in vivo. […] The following Table sets forth the dosages which inhibit 50% of the effect of 0.02 micromole/kg of isoprenaline on blood pressure, on cardiac rhythm and on the contractile strength of the heart.

[4] = read-out: PA2 Chronotropic effect (converted)
[5] = read-out: PA2 Inotropic effect (converted)
[6] = blood pressure, read-out: 50% inhibiting dosage of the action of isoprenaline: Blood pressure
[7] = cardiac rhythm, read-out: 50% inhibiting dosage of the action of isoprenaline: Rhythm
[8] = contractile strength of the heart, read-out: 50% inhibiting dosage of the action of isoprenaline: Contractile strength

Structure (SMILES) | Kb [1] [nM] | Kb [2, 4] [nM] | Kb [2, 5] [nM] | ED50 [3, 6] [µmol/kg] | ED50 [3, 7] [µmol/kg] | ED50 [3, 8] [µmol/kg]
CC(=NOCC(O)CNC(C)(C)C)c1ccccc1C (centres unmarked) [Example 24] | 12.6 | 219 | 204 | – | – | –
CC(C)(C)NCC(O)CON=C(c1ccccc1)c1ccccc1 (centres unmarked) [Example 4, benzophenone-0-(3-tert.butylamino-2-hydroxy-propyl)-oxime hydrochloride] | 11 | 162 | 427 | – | – | –
CC(=NOCC(O)CNC(C)(C)C)c1ccc(C)cc1 (centres unmarked) [Example 17] | 12.9 | 14.8 | 13.8 | – | – | –
CC(C)(C)NCC(O)CON=C1CCCc2ccccc21 (centres unmarked) [Example 18] | 0.631 | 70.8 | 28.8 | 0.05 | > 1 | > 1
CC(C)NCC(O)CON=Cc1ccccc1 (centres unmarked) [Example 16] | 129 | 3020 | 2400 | – | – | –
CC(C)NCC(O)CON=C(c1ccccc1)c1ccccc1 (centres unmarked) [Example 14] | 32.4 | 162 | 191 | – | – | –
CC(=NOCC(O)CNC(C)(C)C)c1ccc(C#N)cc1 (centres unmarked) [Example 31] | 102 | 120 | 123 | – | – | –
CC(C)NCC(O)CON=C1c2ccccc2-c2ccccc21 (centres unmarked) [Example 9] | 166 | 40.7 | 79.4 | 1.3 | > 17 | > 17
COc1ccc(C(C)=NOCC(O)CNC(C)(C)C)cc1 (centres unmarked) [Example 22] | 1.82 | 14.1 | 11.5 | – | – | –
CC(C)NCC(O)CON=Cc1ccc2ccccc2c1 (centres unmarked) [Example 3, 2-naphthalene carbaldehyde-0-(3-isopropylamino-2-hydroxy-propyl)-oxime hydrochloride] | 0.427 | 295 | 115 | – | – | –
CC(C)NCC(O)CON=C1CCc2ccccc21 (centres unmarked) [Example 12] | – | 363 | 513 | – | – | –
CC(=NOCC(O)CNC(C)(C)C)c1ccc([N+](=O)[O-])cc1 (centres unmarked) [Example 23] | 28.8 | 34.7 | 25.1 | 0.1 | 3 | 3
CC(=NOCC(O)CNC(C)(C)C)c1ccc(Cl)cc1 (centres unmarked) [Example 2, 4-chloro-acetophenone-0-(3-tert.butylamino-2-hydroxy-propyl)oxime hydrochloride] | 245 | 26.3 | 37.2 | 1 | > 10 | 10
CC(C)(C)NCC(O)CON=C1c2ccccc2-c2ccccc21 (centres unmarked) [Example 1, 9-(3-tert.butylamino-2-hydroxypropoxy)imino-fluorene hydrochloride] | – | – | – | 0.2 | 3 | 3
CC(C)(C)NCC(O)CON=Cc1ccccc1 (centres unmarked) [Example 19] | 589 | 550 | 269 | – | – | –
CC(=NOCC(O)CNC(C)(C)C)c1ccc(Br)cc1 (centres unmarked) [Example 25] | 3.09 | 26.3 | 12.6 | – | – | –
CC(C)(C)NCC(O)CON=Cc1ccc2ccccc2c1 (centres unmarked) [Example 28] | 42.7 | 35.5 | 32.4 | – | – | –
CC(=NOCC(O)CNC(C)(C)C)c1cccc(C)c1 (centres unmarked) [Example 26] | 5.01 | 7.76 | 7.94 | – | – | –
CC(=NOCC(O)CNC(C)(C)C)c1ccc(N)cc1 (centres unmarked) [Example 27] | 79.4 | 22.9 | 14.5 | – | – | –
CC(=NOCC(O)CNC(C)(C)C)c1ccccc1Cl (centres unmarked) [Example 20] | 13.8 | 4.57 | 4.27 | 0.07 | 1 | 0.7
CC(C)NCC(O)CON=C1CCCc2ccccc21 (centres unmarked) [Example 15] | 12.6 | 676 | 759 | – | – | –
CC(=NOCC(O)CNC(C)(C)C)c1ccccc1 (centres unmarked) [Example 21] | 24 | 200 | 117 | – | – | –
CC(=NOCC(O)CNC(C)C)c1ccccc1 (centres unmarked) [Example 13] | 28.8 | 229 | 186 | – | – | –
CC(C)NCC(O)CON=c1c2ccccc2oc2ccccc12 (centres unmarked) [Example 10] | 155 | 79.4 | 219 | – | – | –

From patent US4038317A, “O-aminoalkyl oximes” (Seperic, priority 1975, dated 1977)
